What all share (type): cell-based
Data set [1] relates to HepG2 cells. The experiment in a line: Measurement of Dil-LDL uptake in HepG2 cells. Particulars: Homo sapiens, 24 h, 10 μM for 20 h, then 20 μg/mL Dil-LDL 4 h, read-out: LDL uptake 10 μM (fold of vehicle). On the procedure:
HepG2 cells were maintained in MEM supplemented with 10% FBS. The cells were seeded in 96 well black plates at a density of 1×10^4 cells per well and grown to 70-80% confluence. Afterwards, cells were changed to serum-free Opti-MEM for 1 h and followed by incubation with 10 μM Berberine or compounds of the present disclosure for 20 h. Then, 20 μg/mL Dil-LDL was added and incubated at 37° C. in the dark for additional 4 h. Cells were extensively washed three times with PBS, and LDL uptake was determined on a fluorescence plate reader at an excitation wavelength of 520 nm and emission wavelength of 580 nm.

Data set [2] relates to PCSK9. The experiment in a line: PCSK9 ELISA on HepG2 culture medium. Particulars: HepG2 cells, 24 hr. On the procedure: (§1) HepG2 cells (ATCC, Cat.: HB-8065) were maintained in Growth medium-Eagle's Minimum Essential Medium (Corning, 10-010-CVR), 10% FBS (Gibco, 10099-141), Penicillin (100 units/mL), Streptomycin ([…]). HepG2 cells were incubated at 37° C., 5% CO2. HepG2 cells were plated in flat bottom 96-well plates (Corning, 3599) at 40,000 cells/well in 100 μL of growth media. After an overnight incubation, the culture media were changed to serum-free OptiMEM media (Gibco, 31985-062), 90 μL/well. Vehicle, PF-06446846 hydrochloride, berberine, or test compound was added to the culture media, 10 μL/well. After 24 hr medium was harvested, and 10 μL of the medium were used for the PCSK9 ELISA (R&D Systems, SPC900).

In data set [3] the test system is HepG2 cells. The experiment in a line: Cell viability assay (HepG2 Survival assay, CellTiter-Glo). Particulars: 24 hr, cellular ATP levels. On the procedure: as §1, with “black clear” for “flat”, “3063)” for “3599)”, “cellular ATP levels” for “medium was harvested, and 10 μL of the medium”, “measured using CellTiter-Glo® 2.0 Assay (Promega, G9242).” for “used for the PCSK9 ELISA (R&D Systems, SPC900).”
A general note: Cellular ATP, detected with luciferase, serves as a proxy for viable cell number.

Data set [4] has as its system PCSK9 mRNA. The experiment in a line: RT-Q-PCR analysis of PCSK9 mRNA in HepG2 cells. The following applies: Homo sapiens, 24 h, normalized to GAPDH, read-out: HepG2 Q-PCR PCSK9 mRNA level decrease (10 μM). The protocol: HepG2 cells (ATCC, Cat.: HB-8065) were maintained in Growth medium-Eagle's Minimum Essential Medium (Corning, 10-010-CVR), 10% FBS (Gibco, 10099-141), Penicillin (100 units/mL), Streptomycin ([…]). HepG2 cells were incubated at 37° C., 5% CO2.
Cells were cultured in growth medium as described above and treated with the vehicle, Berberine or test compound for 24 h. The RNA was extracted using the Total RNA mini Kit (Tiangen, Beijing, China) according to the manufacturer's instructions. Reverse transcription was carried out using the High-Capacity cDNA reverse transcription kit (Thermo Fisher Scientific). Quantitative real-time PCR was performed using a reaction mixture containing cDNA, specific primers [PCSK9, 5′-[…]-3′ (forward) and 5′-[…]-3′ (reverse); GAPDH, 5′-[…]-3′ (forward) and 5′-[…]-3′ (reverse)] and Maxima SYBR Green/ROX qPCR Master Mix (Thermo Fisher Scientific). PCR amplification was carried out in a Real-Time PCR System. The real-time PCR conditions were 37° C. 10 min; 95° C. 10 min; 95° C. 15 s, 60° C. 30 s, 72° C. 30 s, 40 cycle. The amount of % RNA was normalized to the GAPDH level in the same samples.

`CC(C)c1ccc(Oc2ccc(NC(=O)CN(CC(=O)NCc3ccccc3)C(=O)c3cc4cccc(C#N)c4[nH]3)cc2)cc1` [Compound 201-253]: in data set [1], the fold induction at 10 µM came out at 1.77. For the same compound, in data set [2], the “HepG2 PCSK9 ELISA (10 μM) % inhibition” value is listed as 61%. In addition, the “HepG2 Survival assay (10 μM)” value in data set [3] was determined as 110%. The inhibition at 10 µM in data set [4] was determined as 59%.

For the compound `COc1ccc(Oc2ccc(NC(=O)CN(CC(=O)Nc3ccccc3)C(=O)c3cc4cccc(F)c4[nH]3)cc2)cc1` [Compound 201-256], the fold induction at 10 µM in data set [1] came out at 2.43. Besides, in data set [2], the “HepG2 PCSK9 ELISA (10 μM) % inhibition” value worked out at 78%. Further, the “HepG2 Survival assay (10 μM)” value in data set [3] worked out at 109%. Moreover, in data set [4], the inhibition at 10 µM was 75%.

As to `CC(C)c1ccc(Oc2ccc(NC(=O)CN(CC(=O)Nc3ccccc3)C(=O)c3ccc(C(F)(F)F)[nH]3)cc2)cc1` [Compound 201-265], the fold induction at 10 µM in data set [1] is 1.57. Further, in data set [2], the “HepG2 PCSK9 ELISA (10 μM) % inhibition” value stood at 71%. Further, the “HepG2 Survival assay (10 μM)” value in data set [3] worked out at 93%. Besides, the inhibition at 10 µM in data set [4] is 76%.

Consider `N#Cc1cccc2cc(C(=O)N(CC(=O)Nc3ccccc3)CC(=O)Nc3ccc(Oc4ccc(C(F)(F)F)cc4)cc3)[nH]c12` [Compound 201-267], for which the fold induction at 10 µM in data set [1] was determined as 1.34. The “HepG2 PCSK9 ELISA (10 μM) % inhibition” value in data set [2] worked out at 56%. In data set [3], the “HepG2 Survival assay (10 μM)” value stood at 103%. The inhibition at 10 µM in data set [4] was determined as 79%.

For `CC(C)c1ccc(Oc2ccc(NC(=O)CN(CC(=O)Nc3ccccc3)C(=O)c3cc4cccc(C#N)c4[nH]3)cc2)cc1` [Compound 201-269], the fold induction at 10 µM in data set [1] stood at 1.34. In addition, the “HepG2 PCSK9 ELISA (10 μM) % inhibition” value in data set [2] came to 53%. In addition, the “HepG2 Survival assay (10 μM)” value in data set [3] is on record as 106%. In data set [4], the inhibition at 10 µM is 87%.

These data come from patent publication US20230122967A1, “NOVEL COMPOUNDS AS INHIBITORS OF PCSK9” (SHENGKE PHARMACEUTICALS (JIANGSU) LTD., priority 2020, published 2023).
